Test results reported in patent US20250092014A1, “COMPOUNDS AND METHODS OF ACTIVATING LIPOPROTEIN LIPASE” (Metrea Biosciences, Inc., priority 2021, published 2025).
Structures can show the parent of a compound that is named as a salt.

The compounds below were run against T1, LPL:sGPIHBP1 complex (Homo sapiens, UniProt P06858) (assay: RB assay (LPL:sGPIHBP1 pre-incubated with ANGPTL4, RB substrate)). Details: read-out: RB qAC50.
T1 sequence (P06858 28-475): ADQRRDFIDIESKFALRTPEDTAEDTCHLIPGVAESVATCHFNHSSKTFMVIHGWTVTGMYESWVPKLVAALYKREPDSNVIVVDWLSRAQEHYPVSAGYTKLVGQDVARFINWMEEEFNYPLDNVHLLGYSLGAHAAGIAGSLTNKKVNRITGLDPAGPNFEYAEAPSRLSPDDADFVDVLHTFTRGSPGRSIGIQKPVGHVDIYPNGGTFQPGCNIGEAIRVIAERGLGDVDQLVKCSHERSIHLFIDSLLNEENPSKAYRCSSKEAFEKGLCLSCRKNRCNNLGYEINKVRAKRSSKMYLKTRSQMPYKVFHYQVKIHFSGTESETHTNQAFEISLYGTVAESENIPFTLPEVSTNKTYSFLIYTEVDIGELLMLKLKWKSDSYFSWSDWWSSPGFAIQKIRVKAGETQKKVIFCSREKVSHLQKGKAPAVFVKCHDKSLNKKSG
T1 sequence (Q8IV16 21-151 partner limits assumed): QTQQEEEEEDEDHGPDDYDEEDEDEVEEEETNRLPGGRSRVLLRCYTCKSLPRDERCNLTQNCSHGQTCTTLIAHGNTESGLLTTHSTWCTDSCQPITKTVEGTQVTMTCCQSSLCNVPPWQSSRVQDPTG
Assay type: biochemical
Experimental: The assay was performed in black 1536-well plates using purified proteins. To identify compounds that stimulate LPL activity either by directly activating LPL or by inhibiting the antagonist ANGPTL4, the LPL:sGPIHBP1 complex was pre-incubated with ANGPTL4 to decrease LPL activity by 80%. After a 60 min pre-incubation, the reaction was started by adding the RB substrate. 30 min after RB addition, the enzymatic reaction was stopped using SDS. Fluorescence intensity was measured 2 h after stopping the reaction.
20 or 40 nl of compound solution in 100% DMSO were placed in test plate. Then was added LPL:sGPIHBP1 to all wells (diluted in assay buffer to 5 nM; 2 μl/well). This was followed by an addition of ANGPTL4 to compounds and neutral controls (diluted in assay buffer to 20 nM; 1 μl/well). A buffer solution was added to the stimulator control (1 μl/well). The plates were then centrifuged and pre-incubated for 60 min at RT. The reaction was started by adding substrate to all wells (diluted in assay buffer to 40 μM, 1 μl/well). The plated were centrifuged (800 rpm for 1 min) and incubated 30 min at RT (=reaction time). The reaction was stopped by adding SDS to all wells (diluted in water to 2.5%, 2 μl/well); incubated 2 h at RT. The fluorescence intensity (ex 540 nm/em 590 nm) was measured on a Pherastar (BMG) using 5 flashes.

| SMILES | EC50 [µM] |
| --- | --- |
| O=C(O)Cc1cc(F)ccc1NC(=O)c1ccc(N2CCCCC2)c(NC(=O)c2nn(CC3CCC3)c3ccccc23)c1 [Compound 98, 2-(2-(3-(1-(cyclobutylmethyl)-1H-indazole-3-carboxamido)-4-(piperidin-1-yl)benzamido)-5-fluorophenyl)acetic acid] | 6.1 |
| NCCn1nc(C(=O)Nc2cc(C(=O)Nc3ccc(F)cc3CC(=O)O)ccc2N2CCCCC2)c2ccccc21 [Compound 100, 2-(2-(3-(1-(2-aminoethyl)-1H-indazole-3-carboxamido)-4-(piperidin-1-yl)benzamido)-5-fluorophenyl)acetic acid] | > 25 |
| CN1CCN(c2ccc(C(=O)Nc3ccc(F)cc3CC(=O)O)cc2NC(=O)c2nn(CC(F)(F)F)c3ccccc23)CC1 [Example 57] | > 7.1 |
| Cc1c(C(=O)Nc2ccc(F)cc2CC(=O)O)ccc(N2CCCCC2)c1NC(=O)c1nn(CC(F)(F)F)c2ccccc12 [Compound 42, 2-(5-fluoro-2-(2-methyl-4-(piperidin-1-yl)-3-(1-(2,2,2-trifluoroethyl)-1H-indazole-3-carboxamido)benzamido)phenyl)acetic acid] | > 25 |
| COCCn1nc(C(=O)Nc2cc(C(=O)Nc3ccc(F)cc3CC(=O)O)ccc2N2CCCCC2)c2ccccc21 [Compound 105, 2-(5-fluoro-2-(3-(1-(2-methoxyethyl)-1H-indazole-3-carboxamido)-4-(piperidin-1-yl)benzamido)phenyl)acetic acid] | 14 |
| O=C(O)Cc1cc(F)ccc1NC(=O)c1ccc(N2CCCCC2)c(NC(=O)c2nn(CC3CC3)c3ccccc23)c1 [Compound 94, 2-(2-(3-(1-(cyclopropylmethyl)-1H-indazole-3-carboxamido)-4-(piperidin-1-yl)benzamido)-5-fluorophenyl)acetic acid] | 5.9 |
| O=C(O)Cc1cc(F)ccc1NC(=O)c1ccc(N2CCCCC2)c(NC(=O)c2cc(-c3ccccc3)nn2CC(F)(F)F)c1 [Compound 134, 2-(5-fluoro-2-(3-(3-phenyl-1-(2,2,2-trifluoroethyl)-1H-pyrazole-5-carboxamido)-4-(piperidin-1-yl)benzamido)phenyl)acetic acid] | 4.4 |
| Cc1nc(C(=O)Nc2cc(C(=O)Nc3ccc(F)cc3CC(=O)O)ccc2N2CCCCC2)n2ccccc12 [Compound 110, 2-(5-fluoro-2-(3-(1-methylimidazo[1,5-a]pyridine-3-carboxamido)-4-(piperidin-1-yl)benzamido)phenyl)acetic acid] | > 7.1 |
| O=C(O)Cc1cc(F)ccc1NC(=O)c1ccc(N2CCCCC2)c(NC(=O)c2nn(CCN3CCCC3)c3ccccc23)c1 [Compound 101, 2-(5-fluoro-2-(4-(piperidin-1-yl)-3-(1-(2-(pyrrolidin-1-yl)ethyl)-1H-indazole-3-carboxamido)benzamido)phenyl)acetic acid] | > 25 |

More lines, now with the values ahead:

| EC50 [µM] | SMILES |
| --- | --- |
| > 7.1 | Cc1ccc2c(c1)c(C(=O)Nc1cc(C(=O)Nc3ccc(F)cc3CC(=O)O)ccc1N1CCCCC1)nn2CC(F)(F)F [Compound 142, 2-(5-fluoro-2-(3-(5-methyl-1-(2,2,2-trifluoroethyl)-1H-indazole-3-carboxamido)-4-(piperidin-1-yl)benzamido)phenyl)acetic acid] |
| 3.8 | C#CCn1nc(C(=O)Nc2cc(C(=O)Nc3ccc(F)cc3CC(=O)O)ccc2N2CCCCC2)c2ccccc21 [Compound 122, 2-(5-fluoro-2-(4-(piperidin-1-yl)-3-(1-(prop-2-yn-1-yl)-1H-indazole-3-carboxamido)benzamido)phenyl)acetic acid] |
| > 7.1 | O=C(O)Cc1cc(F)ccc1NC(=O)c1ccc(N2CCCCC2)c(NC(=O)c2nn(CC(F)(F)F)c3ccncc23)c1 [Compound 107, 2-(5-fluoro-2-(4-(piperidin-1-yl)-3-(1-(2,2,2-trifluoroethyl)-1H-pyrazolo[4,3-c]pyridine-3-carboxamido)benzamido)phenyl)acetic acid] |
| 23 | O=C(O)Cc1cc(F)ccc1NC(=O)c1ccc(N2CCCCC2)c(NC(=O)c2nn(CC(F)(F)F)c3cccnc23)c1 [Compound 111, 2-(5-fluoro-2-(4-(piperidin-1-yl)-3-(1-(2,2,2-trifluoroethyl)-1H-pyrazolo[4,3-b]pyridine-3-carboxamido)benzamido)phenyl)acetic acid] |
| 3.6 | O=C(O)Cc1ccc(F)cc1NC(=O)c1ccc(N2CCCCC2)c(NC(=O)c2nn(CC(F)(F)F)c3ccccc23)c1 [Compound 38, 2-(4-fluoro-2-(4-(piperidin-1-yl)-3-(1-(2,2,2-trifluoroethyl)-1H-indazole-3-carboxamido)benzamido)phenyl)acetic acid] |
| > 25 | O=C(O)Cc1cc(F)ccc1NC(=O)c1ccc(N2CCCCC2)c(NC(=O)c2nn(CC(F)(F)F)cc2C2CC2)c1 [Compound 117, 2-(2-(3-(4-cyclopropyl-1-(2,2,2-trifluoroethyl)-1H-pyrazole-3-carboxamido)-4-(piperidin-1-yl)benzamido)-5-fluorophenyl)acetic acid] |
| 4.8 | O=C(O)Cc1cc(F)ccc1NC(=O)c1ccc(N2CCCCC2)c(NC(=O)c2nn(CC(F)(F)F)c3ccc(F)cc23)c1 [Compound 138, 2-(5-fluoro-2-(3-(5-fluoro-1-(2,2,2-trifluoroethyl)-1H-indazole-3-carboxamido)-4-(piperidin-1-yl)benzamido)phenyl)acetic acid] |
| 12 | O=C(O)Cc1cc(F)ccc1NC(=O)c1ccc(N2CCCCC2)c(NC(=O)c2c3ccccc3nn2CC(F)(F)F)c1 [Compound 135, 2-(5-fluoro-2-(4-(piperidin-1-yl)-3-(2-(2,2,2-trifluoroethyl)-2H-indazole-3-carboxamido)benzamido)phenyl)acetic acid hydrochloride] |

What follows are compounds tested against T2, LPL (native bovine milk protein) inactivated by ANGPTL4 (Bos taurus, UniProt P11151) (assay: LPL ANGPTL4 protection assay (LPL fluorescence assay, resorufin butyrate substrate)). Details: LPL activation activity, LPL 2.5 nM, ANGPTL4 20 nM.
T2 construct: from tissue; host or cells: bovine milk (LPL); E. coli (GST-ANGPTL4)
T2 sequence (P11151 29-478): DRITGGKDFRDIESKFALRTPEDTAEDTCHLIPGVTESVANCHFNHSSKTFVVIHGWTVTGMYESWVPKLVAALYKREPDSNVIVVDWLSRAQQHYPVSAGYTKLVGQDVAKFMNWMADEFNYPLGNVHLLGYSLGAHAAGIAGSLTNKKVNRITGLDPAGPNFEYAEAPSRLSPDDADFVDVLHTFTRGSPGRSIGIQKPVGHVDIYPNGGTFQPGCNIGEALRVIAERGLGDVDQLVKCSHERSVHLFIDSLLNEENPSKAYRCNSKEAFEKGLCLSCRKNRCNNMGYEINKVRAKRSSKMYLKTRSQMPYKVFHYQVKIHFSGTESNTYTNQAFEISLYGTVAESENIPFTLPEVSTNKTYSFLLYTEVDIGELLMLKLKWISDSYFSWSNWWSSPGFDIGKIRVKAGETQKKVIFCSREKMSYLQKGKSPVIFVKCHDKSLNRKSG
Assay type: biochemical
Experimental: LPL is inactivated by angiopoietin-like 4 (ANGPTL4). Compounds of the present disclosure were for activity using the following protection assay. Briefly, the assay was performed in a black opaque 96-well microtiter plate with final volume of 100 μL using a buffer consisting of 50 mM HEPES (pH 7.2), 150 mM NaCl and 0.03% Triton X-100. Compounds were prepared as 10 mM stocks in DMSO, with subsequent serial dilutions performed in DMSO. Two microliters of test compounds were added to the microtiter plate, followed by 49-PL of LPL (native bovine milk protein affinity purified using heparin-affinity chromatography) in assay buffer. The plate contents were mixed using an orbital shaker and allowed to incubate for 5 minutes at room temperature. The enzymatic assay was initiated by the addition of a mixture of 49 μL of 50 μM resorufin butyrate (Santa Cruz #sc-208302; prepared from a 10 mM DMSO stock) and ANGPTL4 (N-terminal GST construct consisting of residues 26-164 expressed in E. coli) in assay buffer. The final concentrations of LPL and ANGPTL4 were 2.5 nM and 20 nM, respectively. The assay was allowed to proceed at 30° C. for 25 minutes with kinetic monitoring (Ex560/Em585) followed by an endpoint reading which was used for analysis.
Data was analyzed in Graphpad Prism (version 6.0, GraphPad Software, Inc., San Diego, CA) using a variable slope four parameter fit of the equation:
Y=Bottom+(Top-Bottom)/(1+10^((Log EC50−X)*HillSlope)),
where X is the concentration of test compound, Y corresponds to the amount of product expressed in relative fluorescence units, and Top and Bottom refer to the plateaus of the curve. Percent activation (protection) of test compound was calculated relative to zero effect wells (ZEW; LPL, ANGPTL4 and substrate) and maximum effect wells (MEW; LPL plus substrate): ((test well−ZEW)/(MEW−ZEW))*100.

| SMILES | EC50 [µM] |
| --- | --- |
| O=C(O)Cc1cc(F)ccc1NC(=O)c1ccc(N2CCCCC2)c(NC(=O)c2nn(Cc3ccccc3)c3ccccc23)c1 [Compound 159, 2-(2-(3-(1-benzyl-1H-indazole-3-carboxamido)-4-(piperidin-1-yl)benzamido)-5-fluorophenyl)acetic acid] | 0.85 |
| Cn1nc(C(=O)Nc2cc(C(=O)Nc3cc(-c4nnn[nH]4)ccc3F)ccc2N2CCCCC2)c2ccccc21 [Compound 166, N-(5-((2-fluoro-5-(1H-tetrazol-5-yl)phenyl)carbamoyl)-2-(piperidin-1-yl)phenyl)-1-methyl-1H-indazole-3-carboxamide] | 8.1 |
